# Assay results: ChEMBL document CHEMBL1121878, “Synthesis of seleno- and thioguanine-platinum(II) complexes and their antitumor activity in mice” (1981)
# Experiments:
# [1] = The number of mice survived to that of total at a dose of 25 mg/Kg on 30th day: 4/5; type: functional
# Mus musculus [2] = assay: Ratio of the median survival time (treated(T) versus control(C)) at a dose of 25 mg/Kg on days 1 and 5; type: functional
# L1210 [3] = assay: Median survival time at a compound dose of 25 mg/Kg, in mice bearing L1210 cells on days 1 and 5; type: functional, Mus musculus
# L1210 [4] = assay: Effect dose of 50 mg/kg on day 3, before L1210 cell transplantation in mice; type: functional, Mus musculus
# [5] = The number of mice survived to that of total when no compound dose was given on 30th day; type: functional
# Mus musculus [6] = assay: (§1) Ratio of the median survival time (treated(T) versus control(C)) at a dose of 50 mg/kg, on days 1 and 5; type: functional
# [7] = The number of mice survived to that of total at a dose of 50 mg/Kg on 30th day; type: functional
# L1210 [8] = assay: Median survival time at a compound dose of 50 mg/kg, in mice bearing L1210 cells on days 1 and 5; type: functional, Mus musculus
# [9] = The number of mice survived to that of total at a dose of 100 mg/kg on 30th day; type: functional
# L1210 [10] = assay: Median survival time when no dose was administered in mice bearing L1210 cells on days 1 and 5; type: functional, Mus musculus
# L1210 [11] = assay: Median survival time at a compound dose of 200 mg/kg, in mice bearing L1210 cells on days 1 and 5; Toxic; type: functional, organism-based; parameters: dose 200 mg/kg; conditions: Mus musculus
# L1210 [12] = assay: (§2) Median survival time at a compound dose of 100 mg/kg, in mice bearing L1210 cells on days 1 and 5; type: functional, Mus musculus
# Mus musculus [13] = assay: (§3) Ratio of the median survival time (treated(T) versus control(C)) at a dose of 100 mg/kg, on days 1 and 5; type: functional
# L1210 [14] = assay: as §3; type: functional, Mus musculus
# L1210 [15] = assay: In vitro inhibitory concentration required for 50% inhibition of L1210 cell growth; type: functional; conditions: Mus musculus, read-out: ID50 (the source's name)
# L1210 [16] = assay: as §1; type: functional, Mus musculus
# [17] = The number of mice survived to that of total at a dose of 100 mg/kg on 30th day; 3/5; type: functional
# [18] = The number of mice survived to that of total at a dose of 50 mg/kg on 30th day; 1/5; type: functional
# [19] = The number of mice survived to that of total at a dose of 25 mg/kg on 30th day; 0/5; type: functional
# [20] = The number of mice survived to that of total at a dose of 50 mg/kg on 30th day; 0/5; type: functional
# L1210 [21] = assay: Median survival time at a compound dose of 75 mg/kg, in mice bearing L1210 cells on days 1 and 5; type: functional, Mus musculus
# L1210 [22] = assay: Ratio of the median survival time (treated(T) versus control(C)) at a dose of 75 mg/kg on days 1 and 5; type: functional, Mus musculus
# L1210 [23] = assay: Ratio of the median survival time (treated(T) versus control(C)) at a dose of 25 mg/kg, on days 1 and 5; type: functional, Mus musculus
# L1210 [24] = assay: Median survival time at a compound dose of 25 mg/kg, in mice bearing L1210 cells on days 1 and 5; type: functional, Mus musculus
# [25] = The number of mice survived to that of total at a dose of 75 mg/kg on 30th day; 0/5; type: functional
# [26] = The number of mice survived to that of total at a dose of 400 mg/kg on 30th day; 0/5; type: functional, organism-based; parameters: dose 400 mg/kg
# L1210 [27] = assay: Median survival time at a compound dose of 800 mg/kg (administered on days 1 & 5) in mice bearing L1210 cells; type: functional, organism-based; parameters: dose 800 mg/kg; conditions: Mus musculus
# [28] = The number of mice survived to that of total at a dose of 100 mg/kg on 30th day; 0/5; type: functional, organism-based; parameters: dose 100 mg/kg
# L1210 [29] = assay: Ratio of the median survival time (treated(T) versus control(C)) at a dose of 50x2 mg/kgxdays, on days 1 and 5; type: functional, organism-based; conditions: Mus musculus
# L1210 [30] = assay: Median survival time at a compound dose of 400 mg/kg, in mice bearing L1210 cells on days 1 and 5; type: functional, organism-based; parameters: dose 400 mg/kg; conditions: Mus musculus
# L1210 [31] = assay: as §2; type: functional; conditions: Mus musculus
# [32] = The number of mice survived to that of total at a dose of 800 mg/kg on 30th day; 0/5; type: functional, organism-based; parameters: dose 800 mg/kg
# L1210 [33] = assay: Ratio of the median survival time (treated(T) versus control(C)) at a dose of 800 mg/kg, on days 1 and 5; type: functional, organism-based; parameters: dose 800 mg/kg; conditions: Mus musculus
# L1210 [34] = assay: Ratio of the median survival time (treated(T) versus control(C)) at a dose of 400 mg/kg, on days 1 and 5; type: functional, organism-based; parameters: dose 400 mg/kg; conditions: Mus musculus
# L1210 [35] = assay: Ratio of the median survival time (treated(T) versus control(C)) at a dose of 100x2 mg/kgxdays, on days 1 and 5; type: functional, organism-based; conditions: Mus musculus
compound,measurement,setting,value
Nc1nc2[nH]cnc2c(=S)[nH]1 [THIOGUANINE],Ratio,[1],4
same,T/C,Mus musculus [2],>300%
same,Median survival time,L1210 [3],>30 days
same,T/C,L1210 [4],111%
same,Ratio,[5],0
same,T/C,Mus musculus [6],120%
same,Ratio,[7],0
same,Median survival time,L1210 [8],12 days
same,Ratio,[9],0
same,Median survival time,L1210 [10],10 days
same,Median survival time,L1210 [11],Toxic
same,Median survival time,L1210 [12],10 days
same,T/C,Mus musculus [13],100%
Nc1nc([SeH])c2[nH]cnc2n1,T/C,L1210 [4],100%
same,Ratio,[5],0
same,T/C,L1210 [14],>300%
same,Median survival time,L1210 [8],18 days
same,IC50,L1210 [15],0.00416 µM
same,T/C,L1210 [16],200%
same,Median survival time,L1210 [10],9 days
same,Ratio,[17],3
same,Ratio,[18],1
same,Median survival time,L1210 [12],>30 days
Nc1nc([SeH])c2ncn(C3O[C@H](CO)[C@H](O)[C@@H]3O)c2n1 (stereo partly drawn),Ratio,[19],0
same,Ratio,[20],0
same,Median survival time,L1210 [21],13 days
same,Median survival time,L1210 [8],13 days
same,T/C,L1210 [22],144.4%
same,T/C,L1210 [16],144.4%
same,T/C,L1210 [23],166.7%
same,Median survival time,L1210 [10],9 days
same,Median survival time,L1210 [24],15 days
same,Ratio,[25],0
O=c1[nH]c(=S)c2nc[nH]c2[nH]1,IC50,L1210 [15],10.6 µM
"2-(2-Amino-6-selanyl-purin-9-yl)-5-hydroxymethyl-tetrahydro-furan-3,4-diol platinum complex",Ratio,[26],0
same,Median survival time,L1210 [27],14 days
same,Ratio,[28],0
same,Ratio,[20],0
same,T/C,L1210 [29],133%
same,Median survival time,L1210 [30],12 days
same,Ratio,[5],0
same,Median survival time,L1210 [31],11 days
same,Ratio,[32],0
same,Median survival time,L1210 [8]; Mus musculus,12 days
same,T/C,L1210 [33],156%
same,T/C,L1210 [34],133%
same,T/C,L1210 [35],111%
same,Median survival time,L1210 [10]; Mus musculus,9 days
